In patent publication US7452688B2, “Transformed cell with enhanced sensitivity to antifungal compound and use thereof” (Sumitomo Chemical Company, Limited, priority 2002, dated 2008):

Experiments:
Type in all cases: cell-based, Saccharomyces cerevisiae
AH22 strain = assay: Antifungal compound sensitivity test, control yeast AH22 strain (Example 16); settings: 30° C. 24.5 hours, relative value in percentage
Experimental: (§1) The transformed budding yeast AH22-StOS1 prepared in Example 15 was cultured while shaking at 30° C. for 18 hours in a Glu-Leu medium. As a control, the AH22 strain was similarly cultured while shaking at 30° C. for 18 hours in a Glu medium. The absorbance at 600 nm of each grown transformed budding yeast in a cell suspension was measured, and cell suspension diluted with sterilized distilled water to the absorbance of 0.1 was prepared. Further, a cell suspension in which the aforementioned cell suspension of the transformed budding yeast AH22-StOS1 was diluted 50-fold with a Glu-Leu medium, and a cell suspension in which the aforementioned cell suspension of the AH22 strain was diluted 50-fold with a Glu medium were prepared.
(§2) A solution in which each of Compounds (1) to (3) was dissolved in dimethylsulfoxide (DMSO) to the concentration of 6 ppm, a solution in which each of Compounds (4) and (5) was dissolved in dimethylsulfoxide (DMSO) to the concentration of 2000 ppm, and a solution in which Compounds (6) and (7) was dissolved in dimethylsulfoxide (DMSO) to the concentration of 20 ppm were prepared, and two microplates were prepared in which each 1.0 μL per well of the Compound solution and DMSO as a control were dispensed. In one microplate among them, each 100 μL of cell suspensions of the transformed budding yeast AH22-StOS1 which had been prepared by dilution as described above was dispensed, and cultured by allowing to stand at 30° C. for 28 hours. In another microplate, each 100 μL of cell suspensions of the control yeast AH22 strain which had been prepared by dilution as described above was dispensed, and cultured by allowing to stand at 30° C. for 24.5 hours. After culturing, the absorbance at 600 nm of each well was measured with a microplate reader.
(§3) A degree of growth of the transformed budding yeast is expressed as a relative value in percentage, letting the absorbance at 600 nm at the concentration of the Compound of 0 ppm to be 100. It was confirmed that an inhibiting degree of growth of the transformed budding yeast TM182-StOS1 by each test substance was grater than an inhibiting degree of growth of the transformed budding yeast AH22-StOS1 by each test substance, and the transformed budding yeast TM182-StOS1 was a transformed cell with the enhanced sensitivity to an antifungal compound as compared with the transformed budding yeast AH22-StOS1.

AH22 = assay: Antifungal compound sensitivity test, control yeast AH22 (Example 6, Table 2); settings: absorbance at 600 nm relative to 0 ppm = 100
Source text: Degrees of growths of both of the transformed budding yeasts cultured under the presence of Compounds (1) to (7) and budding yeast as a control therefor are shown in Table 2. Degrees of growths of both of the transformed budding yeasts and budding yeast as a control are expressed by a relative value in percentage, letting the absorbance at 600 nm at the concentration of the Compound of 0 ppm to be 100. It was confirmed that an inhibiting degree of growth of the transformed budding yeast TM182-BcOS1-I 365S by each test substance was grater than an inhibiting degree of growth of the transformed budding yeast AH22-BcOS1-I 365S by each test substance, and the transformed budding yeast TM182-BcOS1-I365S was a transformed cell with the enhanced sensitivity to an antifungal compound as compared with the transformed budding yeast AH22-BcOS1-I365S.

[1] = tested on: transformed budding yeast AH22-FoOS1; assay: Antifungal compound sensitivity test, transformed budding yeast AH22-FoOS1 (Example 13); settings: 30° C. 26.5 hours, relative value in percentage
Experimental: as §1, with “AH22-FoOS1” for “AH22-StOS1”, “12” for “15”
as §2, with “of 600” for “of 6”, “them, each.” for “them, each”, “yeast AH22-FoOS1” for “yeast AH22-StOS1”, “for 26.5” for “for 28”
as §3, with “TM182-FoOS1” for “TM182-StOS1”, “AH22-FoOS1” for “AH22-StOS1”, “AH22-FoOS1.” for “AH22-StOS1.”

## CC12CC1(C)C(=O)N(c1cc(Cl)cc(Cl)c1)C2=O (stereo not drawn) [Compound (1), Procymidone]
AH22 strain; final concentration 0.6 ppm
  Degree of growth of budding yeast AH22 Glu medium: 99%
AH22; final concentration 6 ppm
  Degree of growth of budding yeast (%) AH22 Glu medium: 88%
[1]; final concentration 6 ppm
  Degree of growth of budding yeast AH22-FoOS1 Glu-Leu medium: 81%

## CC(C)NC(=O)N1CC(=O)N(c2cc(Cl)cc(Cl)c2)C1=O [Compound (2), Iprodione]
AH22 strain; final concentration 0.6 ppm
  Degree of growth of budding yeast AH22 Glu medium: 94%
AH22; final concentration 6 ppm
  Degree of growth of budding yeast (%) AH22 Glu medium: 91%
[1]; final concentration 6 ppm
  Degree of growth of budding yeast AH22-FoOS1 Glu-Leu medium: 91%

## C=CC1(C)OC(=O)N(c2cc(Cl)cc(Cl)c2)C1=O (stereo not drawn) [Compound (3), Vinclozolin]
AH22 strain; final concentration 0.6 ppm
  Degree of growth of budding yeast AH22 Glu medium: 96%
AH22; final concentration 6 ppm
  Degree of growth of budding yeast (%) AH22 Glu medium: 87%
[1]; final concentration 6 ppm
  Degree of growth of budding yeast AH22-FoOS1 Glu-Leu medium: 86%

## O=[N+]([O-])c1c(Cl)c(Cl)c(Cl)c(Cl)c1Cl [Compound (4), Quintozene]
AH22 strain; final concentration 20 ppm
  Degree of growth of budding yeast AH22 Glu medium: 96%
AH22; final concentration 20 ppm
  Degree of growth of budding yeast (%) AH22 Glu medium: 96%
[1]; final concentration 20 ppm
  Degree of growth of budding yeast AH22-FoOS1 Glu-Leu medium: 90%

## COP(=S)(OC)Oc1c(Cl)cc(C)cc1Cl [Compound (5), Tolclofos-methyl]
AH22 strain; final concentration 20 ppm
  Degree of growth of budding yeast AH22 Glu medium: 80%
AH22; final concentration 20 ppm
  Degree of growth of budding yeast (%) AH22 Glu medium: 80%
[1]; final concentration 20 ppm
  Degree of growth of budding yeast AH22-FoOS1 Glu-Leu medium: 71%

## N#Cc1c[nH]cc1-c1cccc2c1OC(F)(F)O2 [Compound (6), Fludioxonil]
AH22 strain; final concentration 0.2 ppm
  Degree of growth of budding yeast AH22 Glu medium: 92%
AH22; final concentration 0.2 ppm
  Degree of growth of budding yeast (%) AH22 Glu medium: 92%
[1]; final concentration 0.2 ppm
  Degree of growth of budding yeast AH22-FoOS1 Glu-Leu medium: 69%

## N#Cc1c[nH]cc1-c1cccc(Cl)c1Cl [Compound (7), Fenpiclonil]
AH22 strain; final concentration 0.2 ppm
  Degree of growth of budding yeast AH22 Glu medium: 91%
AH22; final concentration 0.2 ppm
  Degree of growth of budding yeast (%) AH22 Glu medium: 91%
[1]; final concentration 0.2 ppm
  Degree of growth of budding yeast AH22-FoOS1 Glu-Leu medium: 88%
